This is an account of results in patent publication US7445939B2, “Stable liquid membranes for liquid phase microextraction” (Varian, Inc., priority 2004, dated 2008).

Data set [1] can be described thus: Weights of fibers with liquid membranes as a function of time and storing condition. Format: physicochemical.
For data set [2] the following is noted: supported liquid membranes of WO 02/088672; cited from earlier work.
A short description of data set [3]: Extraction ability and storage stability of supported liquid membranes on hollow fibers (in words). The format is physicochemical. The note with it: polypropylene fibers, after 30 days of storage at room temperature. Here is the method: The liquid membrane was formed by dipping the hollow fiber into the organic solvent for 5 to 30 sec to allow the solvent to penetrate into the pores of the fiber. Then acceptor solution was introduced into the lumen of the fiber using a syringe. The acceptor solution was 10 mM HCl, having a pH of 2. Extraction ability was tested by immersing the hollow fibers with their supported liquid membranes into a sample vial containing 4 mL of a solution containing 5 basic drugs, at a pH of 12, with stirring, and allowing the analytes to equilibrate across the liquid membranes to the acceptor solution within (25 μl 10 mM HCl). After allowing the sample analytes sufficient time to reach equilibration with the acceptor solution, about 15 to 60 minutes, the acceptor solution was withdrawn from the hollow fibers, and the concentration of analytes was determined using capillary electrophoresis.
Experiments were performed using polypropylene and polysulfone hollow fibers, testing the effectiveness and stability of liquid membranes comprising fatty oils in the extraction of analytes from samples after storage of the fibers for 30 days prior to use. Supported liquid membranes were established on the hollow fibers using the procedures described in Example 1 above, but substituting the following oils for the organic solvents tested in Example 1: tributyrin, soya oil, or olive oil. […]

As for `CCCCCCCCCCCCOC(C)=O` [DDA, dodecyl acetate], the “Weight (mg) of fibers” value in data set [1] (DDA table, closed container, Day 0) is on record as 42.40 mg; in data set [1] (DDA table, closed container, Day 3), 42.14 mg; in data set [1] (DDA table, closed container, Day 10) it was 42.12 mg; in data set [1] (DDA table, open to the air, Day 0), 45.94 mg; in data set [1] (DDA table, open to the air, Day 2), 43.92 mg; in data set [1] (DDA table, open to the air, Day 5), 41.70 mg.

Regarding `CCCCCCCCCCCCCC(=O)OC(C)=O` [MA, myristoyl acetate], the “Weight (mg) of fibers” value is on record as 38.76 mg in data set [1] (MA table, closed container, Day 0); 38.72 mg in data set [1] (MA table, closed container, Day 4); 41.36 mg in data set [1] (MA table, open to the air, Day 0); 40.90 mg in data set [1] (MA table, open to the air, Day 4).

With `CCCCCCCCOc1ccccc1[N+](=O)[O-]` [NPOE, nitropheyloctyl ether], the Membrane lifetime in data set [2] was 10 to 20 days.

With `CCCC(=O)OCC(COC(=O)CCC)OC(=O)CCC` [tributyrin], in data set [3], the Extraction performance result was “extracted analytes”.
